The values that follow are results of earlier work, collected in paper PMC11693862 (Acta Biochimica et Biophysica Sinica, 2024).

Data set [1] relates to Mpros of HCoV-NL63, HCoV-HUK1, MERS-CoV, and SARS-CoV. The following applies: cited from earlier work.
The next data set concerns SARS-CoV and HCoV-229E. The conditions noted are these: cited from earlier work.
The conditions of data set [2]: in vivo; cited from earlier work.

Turning to `COc1cccc2[nH]c(C(=O)NC(CC(C)C)C(=O)NC(CC3CCNC3=O)C(=O)CO)cc12` (stereo not drawn) [PF-00835231], the “Inhibition of Mpros of HCoV-NL63, HCoV-HUK1, MERS-CoV, and SARS-CoV” value in data set [1] is “inhibits”. Further, the “Antiviral activity, semi-maximum effective concentration (EC50)” value in the data set with SARS-CoV and HCoV-229E was “very low”. The Oral bio-availability entry in data set [2] is given as “relatively poor”.
